For seven molecules, inhibition results are on record in patent publication US5530126A, “Process for the preparation of substituted 6-(pyrazol-3yl)-1,4-benzoxazin-3-ones” (Monsanto Company, priority 1994, dated 1996).

What all share (format): in vivo
Test [1] has as its system Barnyardgrass. The test can be described thus: Pre-emergence herbicide test. Particulars: Echinochloa crus-galli, read-out: % plant inhibition (Bygr); for inhibition at 1120 g/ha: 1.12 kg/ha; for inhibition at 11210 g/ha: 11.21 kg/ha. The gist of the method:
(§1)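 Sow seeds on compacted topsoil; apply compound in acetone/water to seed bed; cover with untreated topsoil; grow in greenhouse with bottom watering; score % inhibition at 10-14 days.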

Test [2] concerns Morningglory. The test can be described thus: Pre-emergence herbicide test. To be noted: Ipomoea, read-out: % plant inhibition (Mogl); for inhibition at 1120 g/ha: 1.12 kg/ha; for inhibition at 11210 g/ha: 11.21 kg/ha. The gist of the method: as §1
The test system of test [3] is Wild buckwheat. The test can be described thus: Pre-emergence herbicide test. Particulars: Fallopia convolvulus, read-out: % plant inhibition (Wibw); for inhibition at 1120 g/ha: 1.12 kg/ha; for inhibition at 11210 g/ha: 11.21 kg/ha. The method, boiled down:
as §1

The subject of test [4] is Velvetleaf. The test can be described thus: Pre-emergence herbicide test. Particulars: Abutilon theophrasti, read-out: % plant inhibition (Vele); for inhibition at 1120 g/ha: 1.12 kg/ha; for inhibition at 11210 g/ha: 11.21 kg/ha. The gist of the method:
as §1

Test [5] deals with Yellow nutsedge. Kind of test: Pre-emergence herbicide test. Particulars: Cyperus, read-out: % plant inhibition (Yens); for inhibition at 1120 g/ha: 1.12 kg/ha; for inhibition at 11210 g/ha: 11.21 kg/ha. The method, boiled down:
as §1

The test system of test [6] is Indian Mustard. Kind of test: Pre-emergence herbicide test. To be noted: Brassica juncea, read-out: % plant inhibition (Inmu); for inhibition at 1120 g/ha: 1.12 kg/ha; for inhibition at 11210 g/ha: 11.21 kg/ha. The gist of the method: as §1
The subject of test [7] is Downy Brome. The test can be described thus: Pre-emergence herbicide test. To be noted: Bromus tectorum, read-out: % plant inhibition (Dobr); for inhibition at 1120 g/ha: 1.12 kg/ha; for inhibition at 11210 g/ha: 11.21 kg/ha. The gist of the method:
as §1

For test [8], the system named is Seedling johnsongrass. Kind of test: Pre-emergence herbicide test. To be noted: Sorghum halepense, read-out: % plant inhibition (Sejg); for inhibition at 1120 g/ha: 1.12 kg/ha; for inhibition at 11210 g/ha: 11.21 kg/ha. The method, boiled down:
as §1

Test [9] concerns Cocklebur. The test can be described thus: Pre-emergence herbicide test. Particulars: Xanthium strumarium, read-out: % plant inhibition (Cobu); for inhibition at 1120 g/ha: 1.12 kg/ha; for inhibition at 11210 g/ha: 11.21 kg/ha. The method, boiled down: as §1
The test system of test [10] is Annual bluegrass. The test can be described thus: Pre-emergence herbicide test. Particulars: read-out: % plant inhibition (Anbg); for inhibition at 1120 g/ha: 1.12 kg/ha; for inhibition at 11210 g/ha: 11.21 kg/ha. The method, boiled down: as §1
The subject of test [11] is Barnyardgrass. The test can be described thus: Post-emergence herbicide test. Particulars: Echinochloa crus-galli, read-out: % plant inhibition (Bygr); for inhibition at 1120 g/ha: 1.12 kg/ha; for inhibition at 11210 g/ha: 11.21 kg/ha. The method, boiled down:
(§2)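 Foliar spray trial in greenhouse pans: two- to three-week-old plants treated at 200 gallons/acre by atomizer, spray containing about 0.4% emulsifier. Percent inhibition compared with untreated controls was recorded around day 11.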

For test [12], the system named is Morningglory. Kind of test: Post-emergence herbicide test. Particulars: Ipomoea, read-out: % plant inhibition (Mogl); for inhibition at 1120 g/ha: 1.12 kg/ha; for inhibition at 11210 g/ha: 11.21 kg/ha. The method, boiled down: as §2
In test [13] the test system is Wild buckwheat. Kind of test: Post-emergence herbicide test. To be noted: Fallopia convolvulus, read-out: % plant inhibition (Wibw); for inhibition at 1120 g/ha: 1.12 kg/ha; for inhibition at 11210 g/ha: 11.21 kg/ha. The gist of the method:
as §2

In test [14] the test system is Velvetleaf. The test can be described thus: Post-emergence herbicide test. Particulars: Abutilon theophrasti, read-out: % plant inhibition (Vele); for inhibition at 1120 g/ha: 1.12 kg/ha; for inhibition at 11210 g/ha: 11.21 kg/ha. The gist of the method:
as §2

The test system of test [15] is Yellow nutsedge. The test can be described thus: Post-emergence herbicide test. Particulars: Cyperus, read-out: % plant inhibition (Yens); for inhibition at 1120 g/ha: 1.12 kg/ha; for inhibition at 11210 g/ha: 11.21 kg/ha. The gist of the method: as §2
Test [16] has as its system Indian Mustard. Kind of test: Post-emergence herbicide test. Particulars: Brassica juncea, read-out: % plant inhibition (Inmu); for inhibition at 1120 g/ha: 1.12 kg/ha; for inhibition at 11210 g/ha: 11.21 kg/ha. The gist of the method: as §2
In test [17] the test system is Downy Brome. The test can be described thus: Post-emergence herbicide test. To be noted: Bromus tectorum, read-out: % plant inhibition (Dobr); for inhibition at 1120 g/ha: 1.12 kg/ha; for inhibition at 11210 g/ha: 11.21 kg/ha. The method, boiled down:
as §2

Test [18] relates to Seedling johnsongrass. Kind of test: Post-emergence herbicide test. Particulars: Sorghum halepense, read-out: % plant inhibition (Sejg); for inhibition at 1120 g/ha: 1.12 kg/ha; for inhibition at 11210 g/ha: 11.21 kg/ha. The gist of the method: as §2
For test [19], the system named is Cocklebur. Kind of test: Post-emergence herbicide test. To be noted: Xanthium strumarium, read-out: % plant inhibition (Cobu); for inhibition at 1120 g/ha: 1.12 kg/ha; for inhibition at 11210 g/ha: 11.21 kg/ha. The method, boiled down: as §2
The subject of test [20] is Annual bluegrass. The test can be described thus: Post-emergence herbicide test. To be noted: read-out: % plant inhibition (Anbg); for inhibition at 1120 g/ha: 1.12 kg/ha; for inhibition at 11210 g/ha: 11.21 kg/ha. The gist of the method: as §2

By inhibition is commonly meant the change of the read-out against control, counted positive when it falls. As to `COc1cc(-c2c(Cl)c(C(F)(F)F)nn2C)c(F)cc1Cl` [Compound 74], the inhibition at 1120 g/ha in test [1] amounted to 20%; in [2] it was 50%; in [3] it was 100%; in test [4], 90%; in test [5], 0%; in test [6], 90%. For the same molecule, the inhibition at 1120 g/ha in test [7] stood at 20%; in test [8], 60%; in test [9] it was 0%; in test [10], 10%; in [11], 10%; in [12], 20%. In addition, the inhibition at 1120 g/ha was found to be 90% in test [13]; 40% in test [14]; 10% in test [15]; 40% in [16]; 10% in test [17]; 10% in test [18]. The inhibition at 1120 g/ha stood at 20% in test [19] and 0% in test [20].
For `COc1cc(-c2c(Cl)c(C(F)(F)F)nn2C)c(F)cc1N` [Compound 73], the inhibition at 11210 g/ha was 0% in test [1]; 0% in test [2]; 0% in test [3]; 50% in [4]; 0% in [5]; 20% in test [6]. The inhibition at 11210 g/ha in [7], in test [8], in test [9], in test [10], in test [11] and in [12] was 0% throughout. For the same molecule, the inhibition at 11210 g/ha in test [13] was found to be 20%; in test [14] it was 20%; in test [15], 0%; in test [16] it was 20%; in test [17], 0%; in test [18], 0%. The results for the inhibition at 11210 g/ha in test [19] and in test [20] were 10% and 0%, respectively.
Turning to `CCOC(=O)CSCc1cc(-c2nn(C)c(C(F)(F)F)c2Cl)c(F)cc1Cl` [Compound 123], the inhibition at 1120 g/ha in [1] amounted to 30%; in test [2] it was 100%; in test [3] it was 90%; in test [4], 100%; in test [5], 30%; in test [6] it was 80%. For the same molecule, the inhibition at 1120 g/ha in test [7] stood at 70%; in test [8] it was 40%; in [9] it was 50%; in test [10], 0%; in [11] it was 50%; in test [12], 100%. Moreover, the inhibition at 1120 g/ha in test [13] was 90%; in test [14] it was 100%; in test [15] it was 20%; in test [16], 30%; in test [17], 60%; in [18], 50%. For the same molecule, the inhibition at 1120 g/ha was found to be 70% in test [19] and 0% in [20].
Consider `CC(C)OC(=O)COc1cc(-c2nn(C)c(C(F)(F)Cl)c2Cl)c(F)cc1Cl` [Compound 285], for which the inhibition at 1120 g/ha in test [1] is 50%; in [2] it was 100%; in test [3] it was 80%; in [4] it was 100%; in test [5] it was 0%; in [6], 10%. The inhibition at 1120 g/ha in test [7] turned out to be 0%; in [8] it was 0%; in test [9], 80%; in test [10] it was 0%; in test [11], 70%; in test [12] it was 100%. Also, the inhibition at 1120 g/ha in test [13] turned out to be 100%; in test [14], 100%; in test [15], 40%; in test [16] it was 100%; in [17], 40%; in [18], 50%. In addition, the inhibition at 1120 g/ha was found to be 100% in test [19] and 30% in test [20].
As for `Cn1nc(-c2cc(CBr)c(Cl)cc2F)c(Cl)c1C(F)(F)F` [Compound 108, 3-[5-(bromomethyl)-4-chloro-2-fluorophenyl]-4-chloro-1-methyl-5-(trifluoromethyl)-1H-pyrazole], the inhibition at 11210 g/ha in test [1] was 100%; in test [2] it was 90%; in test [3], 100%; in [4] it was 100%; in [5], 20%; in test [6], 100%. In addition, the inhibition at 11210 g/ha in [7] was 100%; in test [8] it was 90%; in [9] it was 80%; in [10] it was 50%; in test [11] it was 100%; in test [12], 100%. In addition, the inhibition at 11210 g/ha in test [13] was 100%; in [14] it was 100%; in test [15], 0%; in test [16] it was 100%; in [17] it was 100%; in test [18] it was 90%. For the same molecule, the inhibition at 11210 g/ha in test [19] stood at 100%; in [20] it was 90%.
Consider `Cn1nc(-c2cc(CO)c(Cl)cc2F)c(Cl)c1C(F)(F)F` [Compound 122, 2-chloro-5-[4-chloro-1-methyl-5-(trifluoromethyl)-1H-pyrazol-3-yl]-4-fluorobenzenemethanol], for which the inhibition at 1120 g/ha in test [1] came out at 80%; in test [2], 80%; in test [3] it was 70%; in [4], 100%; in test [5], 0%; in test [6], 100%. The inhibition at 1120 g/ha is 20% in test [7]; 40% in test [8]; 40% in test [9]; 20% in test [10]; 70% in test [11]; 80% in [12]. Further, the inhibition at 1120 g/ha in test [13] came out at 90%; in test [14], 100%; in [15], 20%; in test [16] it was 50%; in [17] it was 20%; in test [18] it was 70%. The inhibition at 1120 g/ha in test [19] amounted to 60%; in test [20] it was 20%.
`COCCOc1cc(-c2nn(C)c(C(F)(F)F)c2Cl)c(F)cc1Cl` [Compound 270, 4-Chloro-3-(4-chloro-2-fluoro-5-(methoxyethoxy)phenyl)-1-methyl-5-(trifluoromethyl)-1H-pyrazole]: the inhibition at 1120 g/ha in [1] is 90%; in test [2] it was 100%; in [3] it was 100%; in [4] it was 100%; in test [5], 30%; in test [6] it was 100%. The inhibition at 1120 g/ha was determined as 100% in [7]; 70% in test [8]; 60% in test [9]; 70% in [10]; 100% in test [11]; 100% in test [12]. Further, the inhibition at 1120 g/ha in [13] turned out to be 100%; in test [14] it was 100%; in test [15] it was 60%; in test [16], 90%; in [17], 100%; in test [18], 90%. Further, the inhibition at 1120 g/ha in test [19] and in test [20] was 90% throughout.
